# From patent US20240294488A1, “ISOTOPOLOGES, SALTS, CRYSTALLINE FORMS, STEREOISOMERS, OF METHYLONE AND ETHYLONE AND METHODS OF USE THEREOF” (Terran Biosciences Inc., priority 2021, published 2024)
# What was measured:
# [1] = Metabolic stability in human liver microsomes; assay type: in vitro ADME; details: for difference in half-life and intrinsic clearance compared with the non-deuterated methylone hydrochloride: human liver microsomes; for half-life at 1 μM / microsomal CLint at 1 μM: pooled liver microsomes, pH 7.4, human liver microsomes 0.5 mg/mL, 1 μM compound, NADPH, 0-45 min
# Experimental: Pooled liver microsomes are purchased from a reputable commercial supplier. Microsomes are stored at […] prior to use. Microsomes (final protein concentration 0.5 mg/mL), 0.1 M phosphate buffer pH 7.4 and test compound (final substrate concentration 1 μM; final DMSO concentration 0.25%) are preincubated at 37° C. prior to the addition of NADPH (final concentration 1 mM) to initiate the reaction. A minus cofactor control incubation is included for each compound tested where 0.1 M phosphate buffer pH 7.4 is added instead of NADPH (minus NADPH). Two control compounds are included with each species. All incubations are performed singularly for each test compound. Each compound is incubated for 0, 5, 15, 30 and 45 min. The control (minus NADPH) is incubated for 45 min only. The reactions are stopped by transferring incubate into acetonitrile at the appropriate time points, in a 1:3 ratio. The termination plates are centrifuged at 3,000 rpm for 20 min at 4° C. to precipitate the protein.
# From a plot of ln peak area ratio (compound peak area/internal standard peak area) against time, the gradient of the line is determined. Subsequently, half-life and intrinsic clearance are calculated using the equations below:
# where V=Incubation volume (μL)/Microsomal protein (mg)
# Relevant control compounds were assessed, ensuring intrinsic clearance values fall within the specified limits (if available).
# [2] = cited from earlier work
# C57/BL6J mice = assay: Forced swim test (FST); assay type: in vivo, mouse; details: 24 h after administration
# Experimental: As increased cortical structural plasticity in the anterior parts of the brain mediates the sustained (>24 h) antidepressant-like effects of ketamine and play a role in the therapeutic effects of 5-HT2A agonists, the impact of the present compounds on forced swim test (FST) behavior is evaluated. First, a pretest is used to induce a depressive phenotype. Compounds are administered 24 h after the pre-test, and the FST is performed 24 h and 7 d post compound administration.
# Male C57/BL6J mice (9-10 weeks old at time of experiment) are obtained. After 1 week in the vivarium each mouse is handled for approximately 1 minute by the experimenter for 3 consecutive days leading up to the first FST. All experiments are carried out by the same experimenter who performs handling. During the FST, mice undergo a 6 min swim session in a clear Plexiglas cylinder 40 cm tall, 20 cm in diameter, and filled with 30 cm of 24±1° C. water. […] Immobility scores for all mice are determined after the pre-test and mice are randomly assigned to treatment groups to generate groups with similar average immobility scores to be used for the following two FST sessions. […] Experiments are video-recorded and manually scored offline. Immobility time—defined as passive floating or remaining motionless with no activity other than that needed to keep the mouse's head above water—is scored for the last 4 min of the 6 min trial.
Compound,difference in half-life and intrinsic clearance compared with the non-deuterated methylone hydrochloride [1],half-life at 1 μM [1] [h],microsomal CLint at 1 μM [1] [µL/min/mg],"Oral Methylone Dose, Drug Activity Level Very Strong ([2]; oral, modified from WHO 2014) [mg]","effect of re-dose on duration of effects ([2]; re-dose of one-third to one-half the initial dose, WHO 2014)",immobility in forced swim test (C57/BL6J mice)
"Cl.[2H]C1([2H])Oc2ccc(C(=O)C(C)NC)cc2O1 (racemic) [(rac)-Methylone-d2 hydrochloride, 1-(benzo[d][1,3]dioxol-5-yl-2,2-d2)-2-((methyl)amino)propan-1-one HCl]",demonstrated differences in half-life and intrinsic clearance,2.45,9.46,,,
"Cl.[2H]C([2H])([2H])NC(C)C(=O)c1ccc2c(c1)OCO2 (racemic) [(rac)-Methylone-d3 hydrochloride, 1-(benzo[d][1,3]dioxol-5-yl)-2-((methyl-d3)amino)propan-1-one HCl]",demonstrated differences in half-life and intrinsic clearance,2.88,8.02,,,
"Cl.[2H]C([2H])([2H])NC(C)C(=O)c1ccc2c(c1)OC([2H])([2H])O2 (racemic) [(rac)-Methylone-d5 hydrochloride, 1-(benzo[d][1,3]dioxol-5-yl-2,2-d2)-2-((methyl-d3)amino)propan-1-one HCl]",the most significant difference in half-life and intrinsic clearance,3.05,7.59,,,
"Cl.[2H]C1([2H])Oc2ccc(C(=O)[C@@H](C)NC)cc2O1 [(R)-Methylone-d2 hydrochloride, (R)-1-(benzo[d][1,3]dioxol-5-yl-2,2-d2)-2-((methyl)amino)propan-1-one HCl]",demonstrated differences in half-life and intrinsic clearance,3.3,7,,,
"Cl.[2H]C([2H])([2H])N[C@H](C)C(=O)c1ccc2c(c1)OCO2 [(R)-Methylone-d3 hydrochloride, (R)-1-(benzo[d][1,3]dioxol-5-yl)-2-((methyl-d3)amino)propan-1-one HCl]",demonstrated differences in half-life and intrinsic clearance,3.57,6.49,,,
"Cl.[2H]C([2H])([2H])N[C@H](C)C(=O)c1ccc2c(c1)OC([2H])([2H])O2 [(R)-Methylone-d5 hydrochloride, (R)-1-(benzo[d][1,3]dioxol-5-yl-2,2-d2)-2-((methyl-d3)amino)propan-1-one hydrochloride]",the most significant difference in half-life and intrinsic clearance,3.68,6.27,,,
"Cl.[2H]C1([2H])Oc2ccc(C(=O)[C@H](C)NC)cc2O1 [(S)-Methylone-d2 hydrochloride, (S)-1-(benzo[d][1,3]dioxol-5-yl-2,2-d2)-2-(methylamino)propan-1-one hydrochloride]",demonstrated differences in half-life and intrinsic clearance,2.45,9.41,,,
"Cl.[2H]C([2H])([2H])N[C@@H](C)C(=O)c1ccc2c(c1)OCO2 [(S)-Methylone-d3 hydrochloride, (S)-1-(benzo[d][1,3]dioxol-5-yl)-2-((methyl-d3)amino)propan-1-one HCl]",demonstrated differences in half-life and intrinsic clearance,2.4,9.6,,,
"Cl.[2H]C([2H])([2H])N[C@@H](C)C(=O)c1ccc2c(c1)OC([2H])([2H])O2 [(S)-Methylone-d5 hydrochloride, (S)-1-(benzo[d][1,3]dioxol-5-yl-2,2-d2)-2-((methyl-d3)amino)propan-1-one hydrochloride]",the most significant difference in half-life and intrinsic clearance,2.55,9.07,,,
"CNC(C)C(=O)c1ccc2c(c1)OCO2 (stereo not drawn) [Methylone, 3,4-methylenedioxy-N-methylcathinone]",,,,≥270,prolongs duration for approximately one hour,
CNC1(c2ccccc2Cl)CCCCC1=O (stereo not drawn) [ketamine],,,,,,significantly reduced immobility
